From article PMC8533202, “Design of Inhibitors of the Intrinsically Disordered Protein NUPR1: Balance between Drug Affinity and Target Function” (Biomolecules, 2021)
Values joined by “and” are separate entries in the source; they are usually repeats but may differ in a detail not shown here. Equal entries are not always repeated. Where two headings read alike, the source gives them in different places.

Tests used:
NUPR1 [1] = target: T1, NUPR1 (Homo sapiens, UniProt O60356); parameters: method as in PMID 30920390; settings: ITC; cited from earlier work
T1 construct: made in house
T1 sequence (O60356 1-82): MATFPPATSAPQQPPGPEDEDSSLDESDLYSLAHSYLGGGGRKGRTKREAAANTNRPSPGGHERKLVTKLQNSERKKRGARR

PDAC001T cells [2] = tested on: PDAC001T cells; parameters: method as in PMID 30920390; settings: control, previously obtained; cited from earlier work
PDAC012T cells [3] = tested on: PDAC012T cells; parameters: method as in PMID 30920390; settings: control, previously obtained; cited from earlier work
PDAC021T cells [4] = tested on: PDAC021T cells; parameters: method as in PMID 30920390; settings: control, previously obtained; cited from earlier work
PDAC081T cells [5] = tested on: PDAC081T cells; parameters: method as in PMID 30920390; settings: control, previously obtained; cited from earlier work
PDAC082T cells [6] = tested on: PDAC082T cells; parameters: method as in PMID 30920390; settings: control, previously obtained; cited from earlier work
PDAC087T cells [7] = tested on: PDAC087T cells; parameters: method as in PMID 30920390; settings: control, previously obtained; cited from earlier work
PDAC088T cells [8] = tested on: PDAC088T cells; parameters: method as in PMID 30920390; settings: control, previously obtained; cited from earlier work
PDAC089T cells [9] = tested on: PDAC089T cells; parameters: method as in PMID 30920390; settings: control, previously obtained; cited from earlier work
PDAC115T cells [10] = tested on: PDAC115T cells; parameters: method as in PMID 30920390; settings: control, previously obtained; cited from earlier work
MiaPaCa-2 cells [11] = tested on: MiaPaCa-2 cells; parameters: method as in PMID 30920390; settings: control, previously obtained; cited from earlier work
NUPR1 [12] = target: T1, NUPR1; parameters: method as in PMID 28054562; settings: molecular scaffold of TFP; cited from earlier work
NUPR1 [13] = target: T1, NUPR1; assay: Isothermal titration calorimetry (ITC) binding to NUPR1; settings: 25 °C
Experimental: The binding of the ZZW-115-derived compounds to NUPR1 was determined as described by using a high sensitivity isothermal titration calorimeter Auto-iTC200 (MicroCal, Malvern-Panalytical, Malvern, UK). Protein samples and solutions were properly degassed. Experiments were performed with freshly prepared protein solutions at 25 °C. A solution of NUPR1 (20 μM, in sodium phosphate 20 mM, pH 7.0, 2% DMSO) in the calorimetric cell was titrated with a solution of each compound (200 μM, in sodium phosphate 20 mM pH 7.0, 2% DMSO). The inhibitors were dissolved in the same buffer used for the protein. A standard protocol was employed: 19 titrant injections with 2 μL compound solution were programmed with a time spacing of 150 s, a stirring speed of 750 rpm, and a reference power of 10 μcal/s. The heat evolved after each ligand injection was calculated from the integral of the calorimetric signal. The heat due to the binding reaction was obtained as the difference between the reaction heat and the corresponding heat of injection, the latter estimated as a constant value throughout the experiment, and included as an adjustable parameter in the analysis. Control experiments (with the compounds injected into the buffer) were performed under the same experimental conditions.
The association constant (Ka), the enthalpy change (ΔH) and the stoichiometry (n) of the binding reaction were obtained through nonlinear regression analysis of experimental data to a model assuming a single ligand binding site for the protein. Experiments were performed in replicate and data were analyzed using in-house-developed software implemented in Origin 7 (OriginLab).
The interaction between ZZW-115-Derived compounds and NUPR1 was studied by using ITC, the gold-standard technique in binding-affinity determination, to test our theoretical prediction. […] From the thermogram (thermal power as a function of time), the binding isotherm (ligand-normalized heat as a function of the molar ratio) was obtained through integration of the individual heat effect associated with injection of each ligand solution (Figure 3). We used a nonlinear least-squares regression analysis employing a model that considered a single binding site in NUPR1 to estimate binding parameters such as the dissociation constant and the binding enthalpy.

PDAC001T cells [14] = assay: Cell viability assay (PrestoBlue); assay type: cell-based; settings: Homo sapiens; PDAC001T (basal subtype), 72 h
Source text: (§1) Primary pancreatic cancer cells PDAC001T, PDAC012T, PDAC021T, PDAC081T, PDAC082T, PDAC087T, PDAC088T, PDAC089T, and PDAC115T were obtained from the PaCaOmics clinical trial registered at www.clinicaltrials.gov (accessed on 2 October 2021) with registration number NCT01692873. We included PDAC samples from both echoendoscopic ultrasound-guided fine-needle (EUS-FNA) biopsies for patients with unresectable tumors and from surgical specimens for patients undergoing surgery. The tumor samples of these patients were used to generate patient-derived xenograft in nude mice as previously reported. Xenografts obtained from mice were split into several small pieces and used for cell culture in a biosafety chamber: after fine mincing, they were treated with collagenase type V (ref C9263; Sigma-Aldrich, St. Louis, MO, USA) and trypsin/EDTA (ref 25200-056; Gibco, Life Technologies, Grand Island, NY, USA) and were suspended in Dulbecco’s modified Eagle’s medium supplemented with 1% w/w penicillin/streptomycin (Gibco, Life Technologies, Paisley, UK) and 10% fetal bovine serum (Lonza Inc., Walkersville, MD, USA). After centrifugation, cells were resuspended in serum-free ductal media adapted from Schreiber et al. at 37 °C in a 5% CO2 incubator. Amplified cells were stored in liquid nitrogen as previously reported. Cells were weaned from antibiotics for ≥48 h before testing.
(§2) Cell viability was evaluated in ten pancreatic cancer cell lines, including MiaPaCa-2, and nine primary pancreatic cancer-derived cell lines: PDAC001T, PDAC012T, PDAC021T, PDAC081T, PDAC082T, PDAC087T, PDAC088T, PDAC089T, and PDAC115T. MiaPaCa-2 cells were obtained from ATCC (Manassas, VA, USA) and maintained in DMEM (Invitrogen, Cergy-Pontoise, France), supplemented with 10% […] at 37 °C with 5% CO2. The primary pancreatic cancer-derived cells were cultured in serum free ductal media (SFDM) following a procedure adapted from those previously described, without antibiotic, and incubated at 37 °C in a 5% CO2 incubator. Cells were plated in 96-well plates (5000 cells/well) overnight. Then, the media were supplemented with the compounds to be tested at 0–100 µM concentration, and the samples were incubated for another additional 72 h before performing the measurement. Cell viability was estimated after addition of PrestoBlue™ reagent (Life Technologies, Paris, France) for 3 h according to the PrestoBlue™ cell viability reagent protocol provided by the supplier. Cell viability was normalized when comparing to untreated cell rates. Experiments were performed in triplicate and each set was repeated three times, with similar results.

PDAC012T cells [15] = assay: Cell viability assay (PrestoBlue); assay type: cell-based; settings: Homo sapiens; PDAC012T (classical subtype), 72 h
Source text: as §1, §2

PDAC021T cells [16] = assay: Cell viability assay (PrestoBlue); assay type: cell-based; settings: Homo sapiens; PDAC021T (basal subtype), 72 h
Source text: as §1, §2

PDAC081T cells [17] = assay: Cell viability assay (PrestoBlue); assay type: cell-based; settings: Homo sapiens; PDAC081T (classical subtype), 72 h
Source text: as §1, §2

PDAC082T cells [18] = assay: Cell viability assay (PrestoBlue); assay type: cell-based; settings: Homo sapiens; PDAC082T (classical subtype), 72 h
Source text: as §1, §2

PDAC087T cells [19] = assay: Cell viability assay (PrestoBlue); assay type: cell-based; settings: Homo sapiens; PDAC087T (basal subtype), 72 h
Source text: as §1, §2

PDAC088T cells [20] = assay: Cell viability assay (PrestoBlue); assay type: cell-based; settings: Homo sapiens; PDAC088T (classical subtype), 72 h
Source text: as §1, §2

PDAC089T cells [21] = assay: Cell viability assay (PrestoBlue); assay type: cell-based; settings: Homo sapiens; PDAC089T (derived from a liver metastasis), 72 h
Source text: as §1, §2

PDAC115T cells [22] = assay: Cell viability assay (PrestoBlue); assay type: cell-based; settings: Homo sapiens; PDAC115T (basal subtype), 72 h
Source text: as §1, §2

MiaPaCa-2 cells [23] = assay: Cell viability assay (PrestoBlue); assay type: cell-based, human; settings: MiaPaCa-2, 72 h
Experimental: as §2

[24] = tested on: NUPR1 nuclear translocation; assay: NUPR1 nuclear translocation, immunofluorescence in MiaPaCa-2 cells; assay type: cell-based, human; settings: 3 µM, 6 h (Figure 4)
Experimental: Cells (100000 cells/well) were seeded in 12-well plates on coverslips overnight and then treated with 3 μM concentration of each compound for […]. After fixation with 4% paraformaldehyde (Sigma-Aldrich, St. Quentin, Fallavier, France) for 15 min, cells were washed twice with 1x PBS and incubated 1 h with the following antibodies at 1:200 dilution: rabbit anti-NUPR1 primary antibody (homemade) or γH2AX primary antibody (ab26350, Abcam, Paris, France). After the washing steps, samples were incubated 1 h with secondary antibodies at 1:500 dilution (goat anti-rabbit Alexa Fluor 488, A27034, or goat anti-mouse Alexa Fluor 488, A28175, both from Thermo Fisher Scientific, Franklin, MA, USA). ProLong™ Gold Antifade Mountant with DAPI (P36931, Thermo Fisher Scientific) was used to stain the nucleus and seal the samples. Image acquisition of Alexa Fluor 488-derived fluorescence and DAPI staining was detected with an LSM 880 controlled by Zeiss Zen Black 63x lens. Co-localization analysis and measurements in both channels were performed by using the ImageJ Coloc 2 plugin (version 3.0.5).
MiaPaCa-2 cells were treated with representative ZZW-115-derived compounds (3 µM) for 6 h. […] DAPI staining was used to detect cell nuclei, and it was combined with the Alexa 488 fluorescence in the merged panel. […]

Compound: CN1CCN(CCCN2c3ccccc3Sc3ccc(C(F)(F)F)cc32)CC1 [TFP, trifluoperazine]
- Ka (NUPR1 [1]): 1.9 ± 0.2 M^–1 × 10^5
- N (stoichiometry) (NUPR1 [1]): 1.0 ± 0.1
- ΔG (NUPR1 [1]): −7.2 ± 0.1 kcal mol^–1
- ΔH (NUPR1 [1]): −1.1 ± 0.4 kcal mol^–1
- −TΔS (NUPR1 [1]): −6.1 ± 0.4 kcal mol^–1
- IC50 (PDAC001T cells [2]): 12.5 µM
- IC50 (PDAC012T cells [3]): 20.4 µM
- IC50 (PDAC021T cells [4]): 23.5 µM
- IC50 (PDAC081T cells [5]): 2.48 µM
- IC50 (PDAC082T cells [6]): 21.5 µM
- IC50 (PDAC087T cells [7]): 7.8 µM
- IC50 (PDAC088T cells [8]): 15.9 µM
- IC50 (PDAC089T cells [9]): 8.09 µM
- IC50 (PDAC115T cells [10]): 10.1 µM
- IC50 (MiaPaCa-2 cells [11]): 9.28 µM
- calculated binding score (NUPR1 [12]): –7.0 kcal/mol

Compound: FC(F)(F)c1ccc2c(c1)N(CCCN1CCN(CCN3CCOCC3)CC1)c1ccccc1S2 [ZZW-132]
- N (stoichiometry) (NUPR1 [13]; pH 7.0): 1.2 ± 0.1
- ΔG (NUPR1 [13]; pH 7.0): −7.9 ± 0.1 kcal mol^–1
- ΔH (NUPR1 [13]; pH 7.0): 0.3 ± 0.3 kcal mol^–1
- −TΔS (NUPR1 [13]; pH 7.0): −8.2 ± 0.3 kcal mol^–1
- Ka (NUPR1 [13]; sodium phosphate 20 mM, pH 7.0, 2% DMSO): 5.8 ± 0.4 M^–1 × 10^5
- Kd (NUPR1 [13]; sodium phosphate 20 mM, pH 7.0, 2% DMSO, read-out: Kd (=1/Ka)): ~1.7 µM and 1.7 µM
- IC50 (PDAC001T cells [14]): 12.5 µM
- IC50 (PDAC012T cells [15]): 12.2 µM
- IC50 (PDAC021T cells [16]): 16.5 µM
- IC50 (PDAC081T cells [17]): 1.91 µM
- IC50 (PDAC082T cells [18]): 21.1 µM
- IC50 (PDAC087T cells [19]): 16.6 µM
- IC50 (PDAC088T cells [20]): 23.6 µM
- IC50 (PDAC089T cells [21]): 29.1 µM
- IC50 (PDAC115T cells [22]): 16.1 µM
- IC50 (MiaPaCa-2 cells [23]; Homo sapiens, MIA PaCa-2, 72 h): ~1 µM
- IC50 (MiaPaCa-2 cells [23]): 1.04 µM
- ability to hamper NUPR1 nuclear translocation [24]: worst effect in hampering the nuclear translocation efficiency

Compound: CN(C)CCN1CCN(CCCN2c3ccccc3Sc3ccc(C(F)(F)F)cc32)CC1 [ZZW-115]
- Ka (NUPR1 [1]): 4.7 ± 0.4 M^–1 × 10^5
- N (stoichiometry) (NUPR1 [1]): 0.9 ± 0.1
- ΔG (NUPR1 [1]): −7.7 ± 0.1 kcal mol^–1
- ΔH (NUPR1 [1]): −0.4 ± 0.3 kcal mol^–1
- −TΔS (NUPR1 [1]): −7.3 ± 0.3 kcal mol^–1
- IC50 (PDAC001T cells [2]): 1.84 µM
- IC50 (PDAC012T cells [3]): 2.44 µM
- IC50 (PDAC021T cells [4]): 2.54 µM
- IC50 (PDAC081T cells [5]): 0.84 µM
- IC50 (PDAC082T cells [6]): 2.36 µM
- IC50 (PDAC087T cells [7]): 3.72 µM
- IC50 (PDAC088T cells [8]): 5.29 µM
- IC50 (PDAC089T cells [9]): 4.72 µM
- IC50 (PDAC115T cells [10]): 2.21 µM
- IC50 (MiaPaCa-2 cells [11]): 0.32 µM
